Measured values as given in US20230226096A1 (Orna Therapeutics, Inc., priority 2020, published 2023).
“Also recorded” adds a separate entry of the source.

Legend:
[1] = LNP particle size (Z-average) and polydispersity index by dynamic light scattering; type: physicochemical; settings: Table 36b, LNPs with circular RNA
Protocol: The microfluidic chamber is cleaned with ethanol and neMYSIS syringe pumps are prepared by loading a syringe with the RNA solution and another syringe with the ethanolic lipid. Both syringes are loaded and under the control of neMESYS software. The solutions are then applied to the mixing chip at an aqueous to organic phase ratio of 2 and a total flow rate of 22 ml/min (14.67 ml/min for RNA and 7.33 ml/min for the lipid solution. Both pumps are started synchronously. The mixer solution that flowed from the microfluidic chip is collected in 4×1 ml fractions with the first fraction being discarded as waste. The remaining solution containing the circRNA-transfer vehicles is exchanged by using G-25 mini desalting columns to 10 mM Tris-HCl, 1 mM EDTA, at pH 7.5, as described above. Following buffer exchange, the materials are characterized for size, and RNA entrapment through DLS analysis and Ribogreen assays, respectively.
(§1) Lipid Nanoparticles (LNPs) were formed using a Precision Nanosystems Ignite instrument with a ‘NextGen’ mixing chamber. […] A 3:1 aqueous to ethanol mixing ratio was used. The formulated LNP then were dialyzed in 1 L of water and exchanged 2 times over 18 hours. Dialyzed LNPs were filtered using 0.2 μm filter. Prior to in vivo dosing, LNPs were diluted in PBS. LNP sizes were determined by dynamic light scattering. A cuvette with 1 mL of 20 μg/mL LNPs in PBS (pH 7.4) was measured for Z-average using the Malvern Panalytical Zetasizer Pro. The Z-average and polydispersity index were recorded.
as §1, with “formulated LNPs were” for “formulated LNP”, “then” for “then were”
as §1, with “formulated LNPs were” for “formulated LNP”, “then” for “then were”, “of 1×PBS” for “of water”

[2] = RNA encapsulation / entrapment by Ribogreen assay; type: physicochemical; settings: Table 36b, LNPs with circular RNA
Protocol: A QUANT-IT™ RIBOGREEN® RNA assay (Invitrogen Corporation Carlsbad, Calif.) can be used to evaluate the encapsulation of circRNA by the nanoparticle composition. The samples are diluted to a concentration of approximately 5 μg/mL or 1 μg/mL in a TE buffer solution (10 mM Tris-HCl, 1 mM EDTA, pH 7.5). 50 μL of the diluted samples are transferred to a polystyrene 96 well plate and either 50 μL of TE buffer or 50 μL of a 2-4% Triton X-100 solution is added to the wells. The plate is incubated at a temperature of 37° C. for 15 minutes. The RIBOGREEN® reagent is diluted 1:100 or 1:200 in TE buffer, and 100 μL of this solution is added to each well. The fluorescence intensity can be measured using a fluorescence plate reader (Wallac Victor 1420 Multilabel Counter; Perkin Elmer, Waltham, Mass.) at an excitation wavelength of, for example, about 480 nm and an emission wavelength of, for example, about 520 nm. The fluorescence values of the reagent blank are subtracted from that of each of the samples and the percentage of free circRNA is determined by dividing the fluorescence intensity of the intact sample (without addition of Triton X-100) by the fluorescence value of the disrupted sample (caused by the addition of Triton X-100). C.
For transfer vehicle compositions including RNA, a QUANT-IT™ RIBOGREEN® RNA assay (Invitrogen Corporation Carlsbad, Calif.) can be used to evaluate the encapsulation of RNA by the transfer vehicle composition. […] The fluorescence intensity can be measured using a fluorescence plate reader (Wallac Victor 1420 Multilabel Counter; Perkin Elmer, Waltham, Mass.) at an excitation wavelength of, for example, about 480 nm and an emission wavelength of, for example, about 520 nm. The fluorescence values of the reagent blank are subtracted from that of each of the samples and the percentage of free RNA is determined by dividing the fluorescence intensity of the intact sample (without addition of Triton X-100) by the fluorescence value of the disrupted sample (caused by the addition of Triton X-100). […]

[3] = test system: 1C1C7 cells; test: Modified IRES, stop codon cassettes, 5′ UTR variants: GLuc luminescence in 1C1C7 cells; type: cell-based; settings: 24 and 48 hours after transfection
Description: This example describes modifications of CK-739, AP-748, and PV-743 IRES sequences, including mutations alternative translation initiation sites.
This example describes modifications of circular RNAs by introducing stop codon or cassette variants. […] 1C1C7 cells were transfected with the circular RNAs.
This example describes modifications of circular RNAs by inserting 5′ UTR variants. […] 1C1C7 cells were transfected with the circular RNAs.

[4] = test system: splenic immune cells; test: Cre circular RNA LNPs in Cre reporter (Ai9) mice: tdTomato+ splenic immune cells; type: in vivo; settings: 0.5 mg/kg RNA intravenously, 48 hr, 0.5 mg/kg
Protocol: Circular RNAs encoding Cre recombinase (Cre) are encapsulated into lipid nanoparticles as previously described. Female, 6-8 week old B6.Cg-Gt(ROSA)26Sortm9(CAG-tdTomato)Hze/J (Ai9) mice were dosed with lipid nanoparticles at 0.5 mg/kg RNA intravenously. Fluorescent tdTomato protein was transcribed and translated in Ai9 mice upon Cre recombination, meaning circular RNAs have been delivered to and translated in tdTomato+ cells. After 48 hr, mice were euthanized and the spleens were harvested, processed into a single cell suspension, and stained with various fluorophore-conjugated antibodies for immunophenotyping via flow cytometry.
Ai9 mice (B6.Cg-Gt(ROSA)26Sortm9(CAG-tdTomato)Hze/J, female, 6-8 weeks, n=3 per group) were injected i.v. with 0.5 mg/kg Cre oRNA LNPs or PBS. Ai9 mice transcribe and translate the fluorescent reporter tdTomato upon Cre recombination; meaning cells which are tdTomato+ have successfully been transfected with Cre oRNA.

[5] = test system: HEK293 cells; type: cell-based, human; settings: luminescence from secreted Gluc in supernatant 24 hours after transfection of HEK293 cells; circular RNA encoding Gluc with the named IRES (UTR truncated to 675 nt)

## CCCCCCCCCCCCCCSCCOC(=O)CCN(CCCn1ccnc1)CCC(=O)OCCSCCCCCCCCCCCCCC [93-S14, bis(2-(tetradecylthio)ethyl) 3,3′-((3-(1H-imidazol-1-yl)propyl)azanediyl)dipropionate]
[1]
  PDI: 0.04
  Z-Average(nm): 74 nm
[2]
  RNA Entrapment(%): 95%

## CCCCCCCCCCCCCCSCCOC(=O)CCN(CCCn1ccnc1C)CCC(=O)OCCSCCCCCCCCCCCCCC [22-S14, bis(2-(tetradecylthio)ethyl) 3,3′-((3-(2-methyl-1H-imidazol-1-yl)propyl)azanediyl)dipropionate]
[1]
  PDI: 0.05
  Z-Average(nm): 64 nm
[2]
  RNA Entrapment(%): 97%

## CCCCCCCCC(CCCCCC)C(=O)OCCCCCCN(CCCCCCOC(=O)C(CCCCCC)CCCCCCCC)CCCn1ccnc1 (stereo not drawn) [Lipid 26, Table 10a]
[1]
  PDI: 0.04
  Z-Average(nm): 84 nm
[2]
  RNA Entrapment(%): 96%

## UTR3: 5′ UTR variant: "a higher-GC/structured spacer with a kozak sequence" (DNA CGAACTAGTATTCTTCTGGTCCCCACAGACTCAGAGAGAACCCGCCACC; expressed or natural sequence)
[3]
  translation / expression (luminescence in supernatant): did not show the same benefit

## UTR2: 5′ UTR variant: canonical Kozak sequence with "a 36-nucleotide unstructured/low GC spacer sequence" added (DNA AATAAGAGAGAAAAGAAGAGTAAGAAGAAATATAAGAGCCACC; expressed or natural sequence)
[3]
  translation / expression (luminescence in supernatant): more effective

## CCCCCCCCC(CCCCCC)C(=O)OCCCCCCN(CCCCCCOC(=O)C(CCCCCC)CCCCCCCC)CCCn1ccnc1 (stereo not drawn) [Lipid 26 from Table 10a]
[4]
  proportion of splenic immune cells expressing tdTomato (transfection): significantly higher myeloid and T cell transfection compared with Lipid 93-S14; also recorded: effective at delivering circular RNAs to many splenic immune cell subsets in mice

B1: SA5 (nucleic acid)
DNA: AGTACTTGGTATTCCGGTACCTTTGTACACCTATTTACAAACCCTACCCCTTGTAACCTTAGAAGCAATTATTTAACCGCTCACTAGGGGGTGTGCTATCCAAGCACATCAAGAGCAAGCACTTCTGTCTCCCCGGGAGGGGCTAATGGTACGCTGTGCCCACGGCGGAAATGAGCCCTACCGTTAACCGGCAGTCTACTTCGGGAAGCCCAGTAACTACATTGAAACTTTGAGGCGTTACACTCAGCACATAACCCCAATGTGTAGTTCTGGTCGATGAGCCTTGGCATCCCCCACAGGCGACTGTGGCCAAGGCTGCGTTGGCGGCCAGCCTGCGGACCAAAAGTCCGTAGGACGCCTAATTGTGGACATGGTGTGAAGAGCCTACTGAGCTAGACTGTAGTCCTCCGGCCCCTGAATGCGGCTAATCCTAACCCTGGAGCATCCGCGTGCAACCCAGTACGTAGGGTGTCGTAATGCGTAAGTCTGGGATGGAACCGACTACTTTGGGTGTCCGTGTTTCTTGTTTTTCATACTGGGTCGCTTATGGTTACAACTAATTGTTGTAATCATTGGCAGTGCGCGCTGACCACGCGATTATTGATATTTCCATTTGTTGGATACTCCAATAGTGTCAACTCATATACACAACTTTTACCACTGATCAAGATAAAA
[5]
  Expression: 1.61E+08

B2: EV A114 (nucleic acid, listed as Enterovirus sp.)
DNA: TGTGCGCCTGTTTTGAAACCCCCTCCCCCAACTCGAAACGTAGAAGTAATGTACACTACTGATCAGTAGCAGGCGTGGCGCACCAGCCATGTCTCGATCAAGCACTTCTGTTTCCCCGGACTGAGTATCAATAGACTGCTCACGCGGTTGAAGGTGAAAACGTCCGTTACCCGGCTAACTACTTCGAGAAACCTAGTAGCACCATAGAAACTGCAGAGTGTTTCGCTCAGCACTTCCCCCGTGTAGATCAGGTCGATGAGTCACTGCAATCCCCACGGGTGACCGTGGCAGTGGCTGCGTTGGCGGCCTGCCTATGGGGCAACCCATAGGACGCTCTAAGGTGGACATGGTGTGAAGAGTCTATTGAGCTAGTTAGTAGTCCTCCGGCCCCTGAATGCGGCTAATCCTAACTGTGGAGCGCATACTCCCAAACCAGGGAGCAGTGCGTCGTAACGGGCAACTCCGCAGCGGAACCGACTACTTTGGGTGTCCGTGTTTCCTTTTATTCCTATACTGGCTGCTTATGGTGACAATTGAGAGATTGTTACCATATAGCTATTGGATTGGCCATCCAGTGTGTAATAGAGCAATCATTTACCAATTTGTTGGATTTACTCCATTAACCCACACGTCTCTCAACACACTACATTTCATCTTACTACTGAACACTAGAAA
[5]
  Expression: 1.50E+08

B3: PSIV IGR (nucleic acid)
DNA: GCTGACTATGTGATCTTATTAAAATTAGGTTAAATTTCGAGGTTAAAAATAGTTTTAATATTGCTATAGTCTTAGAGGTCTTGTATATTTATACTTACCACACAAGATGGACCGGAGCAGCCCTCCAATATCTAGTGTACCCTCG
modifications: Plautia stali intestine virus
[5]
  Expression: 1.01E+05
